Data taken from the supplement of paper PMC11208160.

assay: recombinant UMI read abundance after kanamycin selection (control-corrected) (log10(CPM+1)); higher = more efficient recombination; extreme values may be limits of the assay; sequences stand for … in AGTGCAGAGAAAATCGGCCAGTTTTCTCTGCCTGCAGTCCGCATGCCGTGGGACCCCTTGGGTTCTAACCTGTTGCCTAGATTTATGCAGCGGACTGCCTTTCTCCCAAAGTGATAAACCGG…AGGTTGGTTTCACT; site = the 11-nt donor
Method in brief: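 Values, expressed as log10(CPM+1), derive from recombinant UMI counts converted to CPM, averaged across replicates and scaled by control-derived factors. Plating was with IPTG (0.07 mM) plus kanamycin or unselected, two replicates each. The screen pooled donor and donor-binding-loop pairs for the IS621 bridge recombinase in Escherichia coli.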
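Further: IS621 bridge recombinase in Escherichia coli cells against a fixed T5 target plasmid.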

Row | Sequence | recombinant UMI read abundance (log10)
1 | GAGCTCACATGGACCGGTTTTCCCGGTAATCCGTATTTGAG (site GAGCTCACTCT) | 0.665
2 | GAGCTCACATGGACCGGTTTTCCCGGTAATCCGTATTTGAG (site GAGCTCACTGT) | 0
3 | GAGCTCACATGGACCGGTTTTCCCGGTAATCCGTATTTGAG (site GAGCTCACTTT) | 0.00749
4 | GAGCTCCCATGGACCGGTTTTCCCGGTAATCCGTATTTGAT (site GAGCTCACTAT) | 0.00938
5 | GAGCTCCCATGGACCGGTTTTCCCGGTAATCCGTATTTGAT (site GAGCTCCCTAT) | 1.07
6 | GAGCTCCCATGGACCGGTTTTCCCGGTAATCCGTATTTGAT (site GAGCTCGCTAT) | 0
7 | GAGCTCCCATGGACCGGTTTTCCCGGTAATCCGTATTTGAT (site GAGCTCTCTAT) | 2
8 | GAGCTCTCATGGACCGGTTTTCCCGGTAATCCGTATTTGAT (site GAGCTCACTAT) | 0.0184
9 | GAGCTCTCATGGACCGGTTTTCCCGGTAATCCGTATTTGAT (site GAGCTCCCTAT) | 1.06
10 | GAGCTCTCATGGACCGGTTTTCCCGGTAATCCGTATTTGAT (site GAGCTCGCTAT) | 0.0051
11 | GAGCTCTCATGGACCGGTTTTCCCGGTAATCCGTATTTGAT (site GAGCTCTCTAT) | 2.58
12 | GAGCTTCCATGGACCGGTTTTCCCGGTAATCCGTATTTGTC (site GAGCTTCCTGA) | 0.576
13 | GAGGAATCATGGACCGGTTTTCCCGGTAATCCGTATTTGCG (site AAGGAATCTCG) | 2.23
14 | GAGGAATCATGGACCGGTTTTCCCGGTAATCCGTATTTGCG (site CAGGAATCTCG) | 2.04
15 | GAGGAATCATGGACCGGTTTTCCCGGTAATCCGTATTTGCG (site GAGGAATCTCG) | 2.47
16 | GAGGAATCATGGACCGGTTTTCCCGGTAATCCGTATTTGCG (site TAGGAATCTCG) | 2.25
17 | GAGGACGCATGGACCGGTTTTCCCGGTAATCCGTATTTGAG (site GAGGACGCTCT) | 1.9
18 | GAGGAGACATGGACCGGTTTTCCCGGTAATCCGTATTTGCC (site GAGGAGACTGG) | 1.22
19 | GAGGCACCATGGACCGGTTTTCCCGGTAATCCGTATTTGCA (site GAGGCACCTTG) | 0.344
20 | GAGGCACCATGGACCGGTTTTCCCGGTAATCCGTATTTGCA (site GCGGCACCTTG) | 0
21 | GAGGCACCATGGACCGGTTTTCCCGGTAATCCGTATTTGCA (site GGGGCACCTTG) | 0
22 | GAGGCACCATGGACCGGTTTTCCCGGTAATCCGTATTTGCA (site GTGGCACCTTG) | 0
23 | GAGGCCTCATGGACCGGTTTTCCCGGTAATCCGTATTTGAG (site GAGGCCTCTCT) | 1.42
24 | GAGGTGGCATGGACCGGTTTTCCCGGTAATCCGTATTTGGC (site GAGGTGGCTGC) | 2.13
25 | GAGTACGCATGGACCGGTTTTCCCGGTAATCCGTATTTGAT (site GAGTACGCTAT) | 1.99

Row | Sequence | recombinant UMI read abundance (log10)
26 | GAGTAGTCATGGACCGGTTTTCCCGGTAATCCGTATTTGGA (site GAGTAGTCTTC) | 2.7
27 | GAGTCAGCATGGACCGGTTTTCCCGGTAATCCGTATTTGCC (site GAGTCAGCTGG) | 1.07
28 | GAGTTCACATGGACCGGTTTTCCCGGTAATCCGTATTTGAT (site GAGATCACTAT) | 0.00366
29 | GAGTTCACATGGACCGGTTTTCCCGGTAATCCGTATTTGAT (site GAGCTCACTAT) | 0.905
30 | GAGTTCACATGGACCGGTTTTCCCGGTAATCCGTATTTGAT (site GAGGTCACTAT) | 0
31 | GAGTTCACATGGACCGGTTTTCCCGGTAATCCGTATTTGAT (site GAGTTCACTAT) | 1.69
32 | GAGTTGTCATGGACCGGTTTTCCCGGTAATCCGTATTTGTT (site GAGTTGTCTAA) | 2.01
33 | GATAAACCATGGACCGGTTTTCCCGGTAATCCGTATTTGGT (site GAAAAACCTAC) | 0
34 | GATAAACCATGGACCGGTTTTCCCGGTAATCCGTATTTGGT (site GACAAACCTAC) | 0
35 | GATAAACCATGGACCGGTTTTCCCGGTAATCCGTATTTGGT (site GAGAAACCTAC) | 0
36 | GATAAACCATGGACCGGTTTTCCCGGTAATCCGTATTTGGT (site GATAAACCTAC) | 0
37 | GATAAAGCATGGACCGGTTTTCCCGGTAATCCGTATTTGGG (site GATAAAGCTCC) | 0.172
38 | GATACCACATGGACCGGTTTTCCCGGTAATCCGTATTTGCC (site GATACCACTGG) | 1.33
39 | GATACTGCATGGACCGGTTTTCCCGGTAATCCGTATTTGCC (site GATACTGCTGG) | 0.895
40 | GATACTGCATGGACCGGTTTTCCCGGTAATCCGTATTTGCC (site GCTACTGCTGG) | 0.748
41 | GATACTGCATGGACCGGTTTTCCCGGTAATCCGTATTTGCC (site GGTACTGCTGG) | 1.73
42 | GATACTGCATGGACCGGTTTTCCCGGTAATCCGTATTTGCC (site GTTACTGCTGG) | 1.4
43 | GATAGACCATGGACCGGTTTTCCCGGTAATCCGTATTTGGC (site GATAGACCTGC) | 0
44 | GATAGCACATGGACCGGTTTTCCCGGTAATCCGTATTTGCG (site GATAGCACTCG) | 0.578
45 | GATAGGACATGGACCGGTTTTCCCGGTAATCCGTATTTGAC (site GATAGGACTGT) | 2.34
46 | GATAGGACATGGACCGGTTTTCCCGGTAATCCGTATTTGAC (site GATCGGACTGT) | 0.114
47 | GATAGGACATGGACCGGTTTTCCCGGTAATCCGTATTTGAC (site GATGGGACTGT) | 0.531
48 | GATAGGACATGGACCGGTTTTCCCGGTAATCCGTATTTGAC (site GATTGGACTGT) | 0.386
49 | GATAGGACATGGACCGGTTTTCCCGGTAATCCGTATTTGTT (site GATAGGACTAA) | 1.43
50 | GATCATACATGGACCGGTTTTCCCGGTAATCCGTATTTGCT (site GATCATACTAG) | 1.82

Row | Sequence | recombinant UMI read abundance (log10)
51 | GATCCCGCATGGACCGGTTTTCCCGGTAATCCGTATTTGTC (site GATCCCGCTGA) | 0.846
52 | GATCCGGCATGGACCGGTTTTCCCGGTAATCCGTATTTGAT (site GATCCGGCTAT) | 0.0999
53 | GATGATCCATGGACCGGTTTTCCCGGTAATCCGTATTTGCT (site GATAATCCTAG) | 0
54 | GATGATCCATGGACCGGTTTTCCCGGTAATCCGTATTTGCT (site GATCATCCTAG) | 0
55 | GATGATCCATGGACCGGTTTTCCCGGTAATCCGTATTTGCT (site GATGATCCTAG) | 0
56 | GATGATCCATGGACCGGTTTTCCCGGTAATCCGTATTTGCT (site GATTATCCTAG) | 0
57 | GATGATTCATGGACCGGTTTTCCCGGTAATCCGTATTTGTT (site GAAGATTCTAA) | 0.433
58 | GATGATTCATGGACCGGTTTTCCCGGTAATCCGTATTTGTT (site GACGATTCTAA) | 0
59 | GATGATTCATGGACCGGTTTTCCCGGTAATCCGTATTTGTT (site GAGGATTCTAA) | 0
60 | GATGATTCATGGACCGGTTTTCCCGGTAATCCGTATTTGTT (site GATGATTCTAA) | 1.79
61 | GATGCCTCATGGACCGGTTTTCCCGGTAATCCGTATTTGTT (site GATGCCTCTAA) | 0.895
62 | GATGGCTCATGGACCGGTTTTCCCGGTAATCCGTATTTGCC (site GATGGCTCTGG) | 2.65
63 | GATGGTTCATGGACCGGTTTTCCCGGTAATCCGTATTTGAT (site GATGGTTCTAT) | 1.58
64 | GATGTGTCATGGACCGGTTTTCCCGGTAATCCGTATTTGAC (site AATGTGTCTGT) | 1.67
65 | GATGTGTCATGGACCGGTTTTCCCGGTAATCCGTATTTGAC (site CATGTGTCTGT) | 0.736
66 | GATGTGTCATGGACCGGTTTTCCCGGTAATCCGTATTTGAC (site GATGTGTCTGT) | 2.61
67 | GATGTGTCATGGACCGGTTTTCCCGGTAATCCGTATTTGAC (site TATGTGTCTGT) | 0.677
68 | GATTACCCATGGACCGGTTTTCCCGGTAATCCGTATTTGAG (site GATTACCCTCT) | 0.03
69 | GATTACCCATGGACCGGTTTTCCCGGTAATCCGTATTTGCT (site GATTAACCTAG) | 0
70 | GATTACCCATGGACCGGTTTTCCCGGTAATCCGTATTTGCT (site GATTACCCTAG) | 0
71 | GATTACCCATGGACCGGTTTTCCCGGTAATCCGTATTTGCT (site GATTAGCCTAG) | 0
72 | GATTACCCATGGACCGGTTTTCCCGGTAATCCGTATTTGCT (site GATTATCCTAG) | 0
73 | GATTATCCATGGACCGGTTTTCCCGGTAATCCGTATTTGCT (site AATTATCCTAG) | 0
74 | GATTATCCATGGACCGGTTTTCCCGGTAATCCGTATTTGCT (site CATTATCCTAG) | 0.436
75 | GATTATCCATGGACCGGTTTTCCCGGTAATCCGTATTTGCT (site GAATATCCTAG) | 0
